The values below are quoted from earlier work in patent US12594250B2, “Prevention of accumulated tolerance to stimulant medication for the treatment of ADHD” (priority 2021, dated 2026).

Where two headings read alike, the source gives them in different places.

Data set [1] concerns children with ADHD. Conditions: for duration of effect / action / efficacy: after one administration.
The conditions of data set [2]: oral administration; for time to maximum serum concentration (C-max): immediate-release bolus.
For data set [3], the system named is children with ADHD.
Another data set concerns the target T1, DA Transporter (DAT) (Homo sapiens, UniProt Q01959).
T1 construct: dopamine transporter density was increased in specific dopamine regions of the brain; host or cells: living brain (caudate nucleus, nucleus accumbens) of adults with ADHD; endogenous protein
To be noted: adults with ADHD, a year of consistent medication use.

The next data set deals with ADHD. Conditions: high dose of IR formulation.

T1 sequence (Q01959 whole entry): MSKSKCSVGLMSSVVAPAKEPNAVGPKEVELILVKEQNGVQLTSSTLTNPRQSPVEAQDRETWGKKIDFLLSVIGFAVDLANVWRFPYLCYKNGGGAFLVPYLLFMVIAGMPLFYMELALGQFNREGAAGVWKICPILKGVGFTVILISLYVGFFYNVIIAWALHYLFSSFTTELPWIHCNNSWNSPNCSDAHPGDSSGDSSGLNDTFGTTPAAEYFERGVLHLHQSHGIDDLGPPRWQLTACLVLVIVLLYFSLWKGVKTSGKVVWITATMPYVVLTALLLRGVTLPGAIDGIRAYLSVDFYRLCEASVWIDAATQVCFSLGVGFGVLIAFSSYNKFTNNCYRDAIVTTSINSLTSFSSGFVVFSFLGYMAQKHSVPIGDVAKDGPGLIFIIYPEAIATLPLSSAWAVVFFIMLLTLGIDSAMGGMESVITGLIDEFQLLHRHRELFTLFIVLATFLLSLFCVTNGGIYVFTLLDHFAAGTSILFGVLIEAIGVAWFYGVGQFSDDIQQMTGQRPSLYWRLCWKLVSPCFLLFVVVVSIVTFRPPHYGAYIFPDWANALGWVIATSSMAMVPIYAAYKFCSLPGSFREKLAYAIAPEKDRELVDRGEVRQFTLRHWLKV

Take `NC1=NC(=O)C(c2ccccc2)O1` (centres unmarked) [Cylert, pemoline]: in the data set with children with ADHD [1], the “duration of effect / action / efficacy” value was 6 h.

Turning to `CC(N)Cc1ccccc1` (centres unmarked) [amphetamine], in data set [2], the “time to maximum serum concentration (C-max)” value is “about 2 hours”. Besides, in the data set with children with ADHD [1] (twice-a-day (BID) dosing of immediate-release), the “duration of constant effect” value was 10 to 12 h.

On to `COC(=O)C(c1ccccc1)C1CCCCN1` (centres unmarked) [methylphenidate], for which the “effect (PD response) across the day” value is recorded as “increasing effect” in the data set with children with ADHD [3] (ascending PK profile) and “decreasing effect” in the data set with children with ADHD [3] (flat PK profile). The “time to maximum serum concentration (C-max)” value in data set [2] was “about 1 hours”. Moreover, the “half-life (T-½)” value in data set [2] (serum concentration) is 2 to 3 h. Moreover, in the data set with children with ADHD [1] (listed as Ritalin), the “duration of effect / action / efficacy” value is 3 h. In addition, in the data set on children with ADHD [1] (after oral administration), the “onset of clinical effect (reduction in symptoms)” value is listed as “within an hour”. Besides, the DAT density entry on DA Transporter (DAT) was “increases DAT density”.

As for `NC(=O)C[S+]([O-])C(c1ccccc1)c1ccccc1` (centres unmarked) [modafinil], the serious side effects result in the data set on ADHD is reported as “a few cases were suspected of serious dermatologic side effects”.
